# Values quoted from earlier work as cited in patent publication US12329849B2, “Method for dyeing keratinous material, comprising the use of an organosilicon compound, a dyeing compound, a sealing reagent, and a polymer-containing post-treatment agent” (Henkel AG & Co. KGaA, priority 2021, dated 2025).
SMILES,solubility in water (25° C.),other results
CCN(Cc1cccc(S(=O)(=O)[O-])c1)c1ccc(C(=C2C=CC(=[N+](CC)Cc3cccc(S(=O)(=O)[O-])c3)C=C2)c2ccccc2S(=O)(=O)[O-])cc1.[Na+].[Na+] [Acid Blue 9],,water solubility (25° C.): more than 20 wt %
"O=S(=O)([O-])c1ccc(N=Nc2c(O)ccc3ccccc23)cc1.[Na+] [Acid Orange 7, sodium salt of 4-[(2-hydroxy-1-naphthyl)azo]benzenesulfonate]",more than 7 g/l,
"Nc1cc(S(=O)(=O)[O-])cc2cc(S(=O)(=O)[O-])c(N=Nc3ccccc3)c(O)c12.[Na+].[Na+] [Acid Red 33, disodium salt of 5-amino-4-hydroxy-3-(phenylazo)-naphthalene-2,7-disulfonate]",2500 µg/mL,
"O=C([O-])c1c(Cl)c(Cl)c(Cl)c(Cl)c1-c1c2c(Br)cc(=O)c(Br)c-2oc2c(Br)c(O)cc(Br)c12.O=C([O-])c1c(Cl)c(Cl)c(Cl)c(Cl)c1-c1c2c(Br)cc(=O)c(Br)c-2oc2c(Br)c(O)cc(Br)c12.[Na+].[Na+] [Acid Red 92, disodium salt of 3,4,5,6-tetrachloro-2-(1,4,5,8-tetrabromo-6-hydroxy-3-oxoxanthen-9-yl)benzoic acid]",greater than 10 g/l,
"O=C([O-])C1=NN(c2ccc(S(=O)(=O)[O-])cc2)C(=O)C1N=Nc1ccc(S(=O)(=O)[O-])cc1.[Na+].[Na+].[Na+] (centres unmarked) [Acid Yellow 23, trisodium salt of 4,5-dihydro-5-oxo-1-(4-sulfophenyl)-4-((4-sulfophenyl)azo)-1H-pyrazole-3-carboxylic acid]",,solubility in water (in words) (at 25° C.): readily soluble
